The assay deals with T1, EGFR (ErbB1) T790M L858R (Homo sapiens, UniProt P00533, L858R/T790M).
T1 construct: purchased Thermo Fisher Scientific (Life Technologies) SelectScreen
The assay is described as follows: SelectScreen Z'LYTE. The class given is biochemical. Summed up:
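Percent values come from Thermo SelectScreen profiling of NU5455, combining activity and binding assays. CSF1R was run in Z'LYTE format at Km app ATP, and CAMK1 in Adapta format with ATP listed at 10.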

T1 sequence (P00533 25-1210 T790M/L858R): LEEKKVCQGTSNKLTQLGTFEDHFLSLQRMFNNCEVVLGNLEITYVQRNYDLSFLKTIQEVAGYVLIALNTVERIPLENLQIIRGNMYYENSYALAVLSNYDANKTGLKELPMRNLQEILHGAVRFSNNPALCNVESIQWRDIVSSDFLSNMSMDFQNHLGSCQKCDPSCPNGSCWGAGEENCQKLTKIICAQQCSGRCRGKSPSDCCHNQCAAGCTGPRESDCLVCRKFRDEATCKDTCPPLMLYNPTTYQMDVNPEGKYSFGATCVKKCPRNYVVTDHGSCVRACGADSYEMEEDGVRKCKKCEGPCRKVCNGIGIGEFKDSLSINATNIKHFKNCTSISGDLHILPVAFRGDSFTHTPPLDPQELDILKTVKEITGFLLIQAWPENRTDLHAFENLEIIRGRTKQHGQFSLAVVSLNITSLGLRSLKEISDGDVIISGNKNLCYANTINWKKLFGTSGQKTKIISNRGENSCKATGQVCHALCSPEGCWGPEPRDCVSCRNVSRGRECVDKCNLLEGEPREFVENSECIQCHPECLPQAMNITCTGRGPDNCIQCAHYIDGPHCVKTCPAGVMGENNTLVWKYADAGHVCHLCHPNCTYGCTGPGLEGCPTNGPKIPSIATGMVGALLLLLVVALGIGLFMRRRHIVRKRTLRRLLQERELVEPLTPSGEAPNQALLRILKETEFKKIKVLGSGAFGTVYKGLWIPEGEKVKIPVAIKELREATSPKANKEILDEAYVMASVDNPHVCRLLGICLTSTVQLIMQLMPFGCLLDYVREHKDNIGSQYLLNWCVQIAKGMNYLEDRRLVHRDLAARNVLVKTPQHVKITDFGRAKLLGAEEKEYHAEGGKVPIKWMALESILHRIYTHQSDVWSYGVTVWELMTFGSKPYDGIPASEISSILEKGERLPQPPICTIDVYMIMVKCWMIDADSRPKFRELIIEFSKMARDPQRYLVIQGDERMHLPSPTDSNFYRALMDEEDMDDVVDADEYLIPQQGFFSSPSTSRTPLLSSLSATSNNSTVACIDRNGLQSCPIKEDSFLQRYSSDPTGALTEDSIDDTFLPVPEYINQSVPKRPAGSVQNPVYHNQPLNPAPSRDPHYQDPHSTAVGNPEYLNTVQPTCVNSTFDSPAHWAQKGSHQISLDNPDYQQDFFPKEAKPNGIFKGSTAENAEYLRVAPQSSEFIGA

With `CN(C(=O)CN1CCOCC1)c1ccc2sc3c(-c4cccc5c(=O)cc(N6CC7CCC(C6)O7)oc45)cccc3c2c1` [NU5455], the inhibition at 1 µM was -14.1%.

Source of the values: paper PMC6934184, “Selective DNA-PKcs inhibition extends the therapeutic index of localized radiotherapy and chemotherapy” (The Journal of Clinical Investigation, 2019).
